Assay results: publication PMC4997316, “A ruthenium polypyridyl intercalator stalls DNA replication forks, radiosensitizes human cancer cells and is enhanced by Chk1 inhibition” (Scientific Reports, 2016)

What was measured:
HeLa cells [1] = assay: quantification of apoptotic morphology (pyknosis/karyorrhexis); assay type: cell-based, human; settings: single-agent treatment, 48 h (1 40 μM; CHIR-124 500 nM)
Protocol: With this in mind, and considering the strong Chk1 activation in response to 1, HeLa cervical cancer cells, which are […][44], were exposed to a combination of 1 plus the Chk1 inhibitor CHIR-124[45] and the impact of co-treatment upon cell viability determined. A non-cytotoxic dose of 500 nM CHIR-124 was used and results were compared to single-agent treatment. […] Minimal enhancement of the anti-proliferative effect of 2 by CHIR-124 was observed (Fig. S15b), in agreement with 2 operating via a Chk1-independent mechanism.
Figure 5 Concurrent treatment of [Ru(dppz)2(PIP)]^2+ plus the Chk1 inhibitor CHIR-124 potentiates synergistic apoptosis in cancer cells. (a) Viability of HeLa (cervical cancer) or hSAEC1-KT (normal epithelial) cells after incubation with 1 in the absence or presence of Chk1 inhibitor CHIR-124 (500 nM) for 48 h constant exposure. (b) Morphological evidence for apoptosis (pyknosis/karyorrhexis, arrows) in HeLa cells treated with 40 μM 1 plus CHIR-124 for 48 h. Scale bars = 20 μm. (c) Quantification of apoptotic cells for experimental conditions as shown in (b). Equivalent results for 2 (40 μM, 48 h) included. Data mean of two independent experiments +/− SD. […] (f) Quantification of γH2AX foci from cells treated as in (e). […] Minimum of 150 cells counted per experiment. […]

HeLa cells [2] = assay: cell-cycle analysis by PI flow cytometry; assay type: cell-based, human; settings: cisplatin 10 μM, 24 h (Fig. 4c)
Protocol: Figure 4 [Ru(dppz)2(PIP)]^2+ induces Chk1 checkpoint kinase activation and G1-S cell-cycle arrest. […] See SI for densitometry. (c) Cell-cycle distributions of HeLa cells incubated with DMSO (0.2%), 1 or 2 at the stated concentrations and time. DNA content was quantified using propidium iodide (PI) and analysed by flow cytometry. […] Data mean of three independent experiments +/− SD. […] They are copied as bare numbers, left to right. / The gate numbers in panel c are very small, so 3, 5, 6, 8 and 9 cannot be told apart with certainty. All the values below are best readings. / DMSO: 0.86, 57.4, 22.5, 16.8 uncertain / 1 (40 μM, 3 h): 0.46, 72.7, 13.5, 8.77 uncertain / 1 (40 μM, 8 h): 1.69, 73.2, 15.3, 3.6 uncertain / 1 (40 μM, 24 h): 1.2, 72.9, 15.8, 6.47 uncertain. […] 32.4 is partly overlapped by the peak line.
Cells were washed with PBS and detached using Trypsin. After centrifugation at 1000 rpm for 5 min, cells were fixed in cold 70% ethanol for 30 mins, centrifuged and re-suspended in PBS. Samples were stained using 10 μg/ml propidium iodide (PI) and 200 μg/ml RNAase A for 30 mins before FACS analysis using a Biosciences LSRII Flow Cytometer. A minimum of 10,000 cells were counted for each sample and data were processed using FloJo software. […]

[3] = test system: primary human foreskin fibroblasts (HFF); assay: MTT proliferation assay, HFF; assay type: cell-based; settings: 24 h proliferation assay
Protocol: (§1) (LC3 = Microtubule-associated protein light chain 3) (Fig. 2b, bottom).
(§2) Cells were seeded in 96 well plates at 20,000 cells/well, allowed to proliferate for 24 h before treatment as described in the main text. 0.5 mg ml^−1 MTT (thiazolyl blue tetrazolium bromide) dissolved in serum-free media was added for 60 minutes and the formazan product eluted using acidified isopropanol. The absorbance at 540 nm was quantified by plate reader (reference wavelength 650 nm). The metabolic activity of the cell population was determined as a percentage of a negative (solvent) control.

MCF7 breast cancer cells = assay: MTT proliferation assay, MCF7; assay type: cell-based, human; settings: 24 h proliferation assay
Protocol: as §1, §2

[4] = test system: HeLa cervical cancer cells; assay: MTT proliferation assay, HeLa; assay type: cell-based, human; settings: 24 h proliferation assay
Protocol: as §1, §2

Compound | morphological evidence of apoptosis (pyknosis/karyorrhexis) (HeLa cells [1]) [%] | cells with sub-G1 DNA content (HeLa cells [2]) | IC50 [3] [µM] | IC50 (MCF7 breast cancer cells) [µM] | IC50 [4] [µM] | IC50 ([3]; Homo sapiens, Fibroblast, 24 h) [µM] | IC50 (MCF7 breast cancer cells; Homo sapiens, MCF7, 24 h) [µM] | IC50 ([4]; Homo sapiens, HeLa, 24 h) [µM]
O=c1[nH]c2ccc(Cl)cc2c(N[C@@H]2CN3CCC2CC3)c1-c1nc2ccccc2[nH]1 [CHIR-124, reference compound] | < 5 | – | – | – | – | – | – | –
N.N.[Cl][Pt][Cl] [Cisplatin, cis-diamminedichloroplatinum(II)] | – | ~ 30% | > 100 | 11 | 9 | – | – | –
O=C1c2c(O)ccc(O)c2C(=O)c2c(NCCNCCO)ccc(NCCNCCO)c21 [MX, mitoxantrone] | – | – | 4.2 | 3.6 | 3 | < 5 | < 5 | < 5
